Among the data in US10316017B2, “COT modulators and methods of use thereof” (Gilead Sciences, Inc., priority 2015, dated 2019) are IC50 and EC50 values, retold here.

Assay [1] deals with T1, human Cot catalytic domain (30-397 amino acids) (Homo sapiens, UniProt P41279).
T1 construct: Purified recombinant human Cot catalytic domain (30-397 amino acids) was purchased from Cama Biosciences; purchased Cama Biosciences (so in the source)
Put plainly: High Throughput Cot Biochemical Assay (KinEASE TR-FRET). Particulars: Cot biochemical HTRF (KinEASE TR-FRET) assay; read-out: IC50 HTRF. An outline of the steps:
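Reaction of 5 nM recombinant human Cot catalytic domain (aa 30-397) with 1 μM STK3 peptide (XL665-labeled) and 400 μM ATP in 10 mM MOPS pH 7.0, 10 mM MgOAc, 1 mM DTT, 0.5 mg/mL BSA, 0.1% DMSO. Phosphopeptide detected by TR-FRET with europium anti-phospho antibody.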
In general terms: In TR-FRET formats the signal depends on donor and acceptor labels being close together.

Assay [2] deals with TNFα production in LPS-stimulated human monocytes. Briefly: Cot Monocyte TNFα Cell Based Assay. Particulars: Homo sapiens, Monocyte, TNFα in LPS-stimulated human monocytes; read-out: EC50 TNF. An outline of the steps: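 Cells at 5,000/well were pretreated with compound for 1 h at 37 °C (0.5% DMSO final), then stimulated with 50 pg/ml LPS for 4 h at 37 °C. Supernatant TNFα was measured by two-antibody TR-FRET after overnight room-temperature incubation; values are percent of control between unstimulated and stimulated wells.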

Some results are limits rather than exact numbers.

T1 sequence (P41279 30-397): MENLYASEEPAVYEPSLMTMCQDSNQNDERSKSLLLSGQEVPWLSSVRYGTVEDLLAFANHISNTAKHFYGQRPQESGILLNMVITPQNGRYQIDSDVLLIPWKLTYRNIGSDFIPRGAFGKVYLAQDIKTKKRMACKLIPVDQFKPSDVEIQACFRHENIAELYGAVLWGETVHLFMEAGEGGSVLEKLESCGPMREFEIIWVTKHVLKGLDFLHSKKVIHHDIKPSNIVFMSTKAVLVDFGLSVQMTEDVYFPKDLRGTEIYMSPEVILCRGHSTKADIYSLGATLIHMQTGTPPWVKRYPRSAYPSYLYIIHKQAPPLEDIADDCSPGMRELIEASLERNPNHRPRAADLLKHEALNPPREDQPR

For `CC(C)(C)N1CCC(n2cc([C@@H](Nc3cc(Cl)c4ncc(C#N)c(Nc5ccc(OCc6ccccc6)c(Cl)c5)c4c3)c3ccc(Cl)cc3)nn2)CC1` [Example 654, (S)-4-((4-(benzyloxy)-3-chlorophenyl)amino)-6-(((1-(1-(tert-butyl)piperidin-4-yl)-1H-1,2,3-triazol-4-yl)(4-chlorophenyl)methyl)amino)-8-chloroquinoline-3-carbonitrile], in assay [1], the IC50 is 2.04 µM. The EC50 in assay [2] was > 50 µM.
For `CCOc1ccc(Nc2c(C#N)cnc3c(Cl)cc(N[C@@H](c4ccc(Cl)cc4)c4cn(C5CCN(C(C)(C)C)CC5)nn4)cc23)cc1Cl` [Example 655, (S)-6-(((1-(1-(tert-butyl)piperidin-4-yl)-1H-1,2,3-triazol-4-yl)(4-chlorophenyl)methyl)amino)-8-chloro-4-((3-chloro-4-ethoxyphenyl)amino)quinoline-3-carbonitrile], in that order: 0.324 µM and 10.5 µM.
On the same counts, the results for `C[C@@H](Nc1c(C#N)cnc2c(Cl)cc(N[C@@H](c3ccccc3)c3c[nH]nn3)cc12)c1ccccc1` [Example 656, 8-chloro-6-(((S)-phenyl(1H-1,2,3-triazol-4-yl)methyl)amino)-4-(((R)-1-phenylethyl)amino) quinoline-3-carbonitrile] are 0.039 µM and 1.82 µM.
Consider `C[C@@H](Nc1c(C#N)cnc2c(Cl)cc(N[C@@H](c3ccc(Cl)cc3)c3c[nH]nn3)cc12)c1ccccc1` [Example 657, 8-chloro-6-(((S)-(4-chlorophenyl)(1H-1,2,3-triazol-4-yl)methyl)amino)-4-(((R)-1-phenylethyl)amino)quinoline-3-carbonitrile], for which the IC50 in assay [1] is 0.143 µM. For the same compound, the EC50 in assay [2] was found to be 2.49 µM.
On the same counts, the results for `C[C@H](CNc1c(C#N)cnc2c(Cl)cc(N[C@@H](c3ccc(Cl)cc3)c3cn(C4CCN(C(C)(C)C)CC4)nn3)cc12)c1ccccc1` [Example 658, 6-(((S)-(1-(1-(tert-butyl)piperidin-4-yl)-1H-1,2,3-triazol-4-yl)(4-chlorophenyl)methyl)amino)-8-chloro-4-(((S)-2-phenylpropyl)amino)quinoline-3-carbonitrile] are 0.027 µM and 12.2 µM.
For `C[C@@H](CNc1c(C#N)cnc2c(Cl)cc(N[C@@H](c3ccc(Cl)cc3)c3cn(C4CCN(C(C)(C)C)CC4)nn3)cc12)c1ccccc1` [Example 659, 6-(((S)-(1-(1-(tert-butyl)piperidin-4-yl)-1H-1,2,3-triazol-4-yl)(4-chlorophenyl)methyl)amino)-8-chloro-4-(((R)-2-phenylpropyl)amino)quinoline-3-carbonitrile], in that order: 0.095 µM and 5.35 µM.
As for `CC(C)(C)N1CCC(n2cc([C@@H](Nc3cc(Cl)c4ncc(C#N)c(Nc5cnc(F)c(F)c5)c4c3)c3ccc(Cl)cc3)nn2)CC1` [Example 660, (S)-6-(((1-(1-(tert-butyl)piperidin-4-yl)-1H-1,2,3-triazol-4-yl)(4-chlorophenyl)methyl)amino)-8-chloro-4-((5,6-difluoropyridin-3-yl)amino)quinoline-3-carbonitrile], in assay [1], the IC50 came out at 0.014 µM. The EC50 in assay [2] was 0.807 µM.
On the same counts, the results for `CC(C)(C)N1CCC(n2cc([C@@H](Nc3cc(Cl)c4ncc(C#N)c(NC5CCOCC5)c4c3)c3ccc(Cl)cc3)nn2)CC1` [Example 662, (S)-6-(((1-(1-(tert-butyl)piperidin-4-yl)-1H-1,2,3-triazol-4-yl)(4-chlorophenyl)methyl)amino)-8-chloro-4-((tetrahydro-2H-pyran-4-yl)amino)quinoline-3-carbonitrile] are 0.07 µM and 1.27 µM.
On the same counts, the results for `CC1(Nc2c(C#N)cnc3c(Cl)cc(N[C@@H](c4ccc(Cl)cc4)c4cn(C5CCN(C(C)(C)C)CC5)nn4)cc23)CCCCC1` [Example 663, (S)-6-(((1-(1-(tert-butyl)piperidin-4-yl)-1H-1,2,3-triazol-4-yl)(4-chlorophenyl)methyl)amino)-8-chloro-4-((1-methylcyclohexyl)amino) quinoline-3-carbonitrile] are 0.072 µM and 4.74 µM.
As for `CC(C)(C)N1CCC(n2cc([C@@H](Nc3cc(Cl)c4ncc(C#N)c(Nc5cc(Cl)c(Cl)cc5F)c4c3)c3ccc(Cl)cc3)nn2)CC1` [Example 664, (S)-6-(((1-(1-(tert-butyl)piperidin-4-yl)-1H-1,2,3-triazol-4-yl)(4-chlorophenyl)methyl)amino)-8-chloro-4-((4,5-dichloro-2-fluorophenyl)amino)quinoline-3-carbonitrile], in assay [1], the IC50 was determined as 0.379 µM. Moreover, the EC50 in assay [2] turned out to be 8.15 µM.
With `N#Cc1cnc2c(Cl)cc(N[C@@H](c3ccccc3)c3cn(CCCF)nn3)cc2c1Nc1ccc(F)c(Cl)c1` [Example 666, (S)-8-chloro-4-((3-chloro-4-fluorophenyl)amino)-6-(((1-(3-fluoropropyl)-1H-1,2,3-triazol-4-yl)(phenyl)methyl)amino) quinoline-3-carbonitrile], the IC50 in assay [1] worked out at 0.014 µM. In addition, the EC50 in assay [2] worked out at 0.458 µM.
As for `N#Cc1cnc2c(Cl)cc(N[C@@H](c3ccccc3)c3c[nH]nn3)cc2c1Nc1ccc(F)c(Cl)c1` [Example 667, (S)-8-chloro-4-((3-chloro-4-fluorophenyl)amino)-6-((phenyl(1H-1,2,3-triazol-4-yl)methyl)amino)quinoline-3-carbonitrile], the half-inhibitory concentration (IC50) in assay [1] stood at 0.028 µM. The EC50 in assay [2] was determined as 0.887 µM.
Turning to `CC(C)(C)C(=O)OCn1cc([C@@H](Nc2cc(Cl)c3ncc(C#N)c(Nc4ccc(F)c(Cl)c4)c3c2)c2ccccc2)nn1` [Example 668, (S)-(4-(((8-chloro-4-((3-chloro-4-fluorophenyl)amino)-3-cyanoquinolin-6-yl)amino)(phenyl)methyl)-1H-1,2,3-triazol-1-yl)methyl pivalate], the IC50 in assay [1] turned out to be 0.097 µM. In assay [2], the EC50 came to 1.61 µM.
For `N#Cc1cnc2c(Cl)cc(N[C@@H](c3ccccc3)c3cn(CC(F)F)nn3)cc2c1Nc1ccc(F)c(Cl)c1` [Example 669, (S)-8-chloro-4-((3-chloro-4-fluorophenyl)amino)-6-(((1-(2,2-difluoroethyl)-1H-1,2,3-triazol-4-yl)(phenyl)methyl)amino) quinoline-3-carbonitrile], in that order: 0.039 µM and 1.09 µM.
For `CC(C)(C)C(=O)c1cccc([C@H](Nc2cc(Cl)c3ncc(C#N)c(Nc4ccc(F)c(Cl)c4)c3c2)c2cn(C3CCN(C(C)(C)C)CC3)nn2)c1` [Example 671, (S)-6-(((1-(1-(tert-butyl)piperidin-4-yl)-1H-1,2,3-triazol-4-yl)(3-pivaloylphenyl)methyl)amino)-8-chloro-4-((3-chloro-4-fluorophenyl)amino)quinoline-3-carbonitrile], in that order: 0.01 µM and 0.682 µM.
For `CC(C)(C)C(O)c1cccc([C@H](Nc2cc(Cl)c3ncc(C#N)c(Nc4ccc(F)c(Cl)c4)c3c2)c2cn(C3CCN(C(C)(C)C)CC3)nn2)c1` (stereo partly drawn) [Example 672, 6-(((1S)-(1-(1-(tert-butyl)piperidin-4-yl)-1H-1,2,3-triazol-4-yl)(3-(1-hydroxy-2,2-dimethylpropyl)phenyl)methyl)amino)-8-chloro-4-((3-chloro-4-fluorophenyl)amino)quinoline-3-carbonitrile], in that order: 0.032 µM and 0.889 µM.
For `CC(C)(C)N1CCC(n2cc([C@@H](Nc3cc(Cl)c4ncc(C#N)c(Nc5ccc(F)c(Cl)c5)c4c3)c3cccc(C(N)=O)c3)nn2)CC1` [Example 673, (S)-3-((1-(1-(tert-butyl)piperidin-4-yl)-1H-1,2,3-triazol-4-yl)((8-chloro-4-((3-chloro-4-fluorophenyl)amino)-3-cyanoquinolin-6-yl)amino)methyl)benzamide], the IC50 in assay [1] came out at 0.002 µM. Besides, the EC50 in assay [2] worked out at 1.55 µM.
For `CCN(C)C(=O)c1cccc([C@H](Nc2cc(Cl)c3ncc(C#N)c(Nc4ccc(F)c(Cl)c4)c3c2)c2cn(C3CCN(C(C)(C)C)CC3)nn2)c1` [Example 674, (S)-3-((1-(1-(tert-butyl)piperidin-4-yl)-1H-1,2,3-triazol-4-yl)((8-chloro-4-((3-chloro-4-fluorophenyl)amino)-3-cyanoquinolin-6-yl)amino)methyl)-N-ethyl-N-methylbenzamide], in that order: 0.003 µM and 0.318 µM.
For `CC(C)(C)N1CCC(n2cc([C@@H](Nc3cc(Cl)c4ncc(C#N)c(Nc5ccc(F)c(Cl)c5)c4c3)c3cccc(C(=O)N4CCC4)c3)nn2)CC1` [Example 675, (S)-6-(((3-(azetidine-1-carbonyl)phenyl)(1-(1-(tert-butyl)piperidin-4-yl)-1H-1,2,3-triazol-4-yl)methyl)amino)-8-chloro-4-((3-chloro-4-fluorophenyl)amino)quinoline-3-carbonitrile], in that order: 0.001 µM and 0.081 µM.
For `CC(C)(C)N1CCC(n2cc([C@@H](Nc3cc(Cl)c4ncc(C#N)c(Nc5ccc(F)c(Cl)c5)c4c3)c3cccc(C(=O)N4CCCCC4)c3)nn2)CC1` [Example 676, (S)-6-(((1-(1-(tert-butyl)piperidin-4-yl)-1H-1,2,3-triazol-4-yl)(3-(piperidine-1-carbonyl)phenyl)methyl)amino)-8-chloro-4-((3-chloro-4-fluorophenyl)amino)quinoline-3-carbonitrile], in that order: 0.006 µM and 0.434 µM.

What is called IC50 is the concentration that inhibits the measured activity by half. The EC50 is the concentration needed to bring the measured effect to its halfway point.
